Laboratory results taken from ChEMBL document CHEMBL3885861, “Open TG-GATES”.

Species: Rattus norvegicus
Assay: Open TG-GATES - Regimen: Daily Repeat
Assay type: toxicity, organism-based, Sprague-Dawley
Design: regimen Daily Repeat, gender Male, age 6 weeks
Conditions: in vivo, po, 10 mg/kg, route gavage, dose level Middle; for APTT / Bas / Eos / Fbg / Hb / Ht / Lym / MCH / MCHC / MCV / Mono / Neu / PT / Plat / RBC / Ret / WBC: tissue Blood; for KIDNEY_L / KIDNEY_R / KIDNEY_TOTAL: tissue Kidney; for LIVER: tissue Liver; for A/G / ALP / ALT / AST / BUN / CRE / Ca / Cl / DBIL / GLC / IP / K / LDH / Na / PL / RALB / TBIL / TC / TG / TP / gamma-GTP: tissue Plasma

C=CCO [ALLYL ALCOHOL]
TERMINAL_BW (72 h, time 3 day): 233.1 g
APTT (72 h, time 3 day): 20.8 s
Bas (72 h, time 3 day): 0%
Eos (72 h, time 3 day): 0.6%
Fbg (72 h, time 3 day): 233.2 mg/dL
Hb (72 h, time 3 day): 13.9 g/dL
Ht (72 h, time 3 day): 40.8%
Lym (72 h, time 3 day): 77.4%
MCH (72 h, time 3 day): 20.6 pg
MCHC (72 h, time 3 day): 33.9%
MCV (72 h, time 3 day): 60.7 fL
Mono (72 h, time 3 day): 3.6%
Neu (72 h, time 3 day): 17.8%
PT (72 h, time 3 day): 11.7 s
Plat (72 h, time 3 day): 133.2 x10_4/uL
RBC (72 h, time 3 day): 672.8 x10_4/ul
Ret (72 h, time 3 day): 5.1%
WBC (72 h, time 3 day): 116 x10_2/uL
KIDNEY_L (72 h, time 3 day): 1 g
KIDNEY_R (72 h, time 3 day): 1 g
KIDNEY_TOTAL (72 h, time 3 day): 2.1 g
LIVER (72 h, time 3 day): 11.2 g
A/G (72 h, time 3 day): 1.6
ALP (72 h, time 3 day): 921.4 IU/L
ALT (72 h, time 3 day): 35.2 IU/L
AST (72 h, time 3 day): 67.6 IU/L
BUN (72 h, time 3 day): 14 mg/dL
CRE (72 h, time 3 day): 0.4 mg/dL
Ca (72 h, time 3 day): 10.7 mg/dL
Cl (72 h, time 3 day): 103 meq/L
DBIL (72 h, time 3 day): 0.066 mg/dL
GLC (72 h, time 3 day): 207.8 mg/dL
IP (72 h, time 3 day): 6.6 mg/dL
K (72 h, time 3 day): 3.9 meq/L
LDH (72 h, time 3 day): 226 IU/L
Na (72 h, time 3 day): 140.2 meq/L
PL (72 h, time 3 day): 142 mg/dL
RALB (72 h, time 3 day): 3.3 g/dL
TBIL (72 h, time 3 day): 0.1 mg/dL
TC (72 h, time 3 day): 78 mg/dL
TG (72 h, time 3 day): 78 mg/dL
TP (72 h, time 3 day): 5.3 g/dL
gamma-GTP (72 h, time 3 day): 1 IU/L
TERMINAL_BW ([…], time 7 day): 267.6 g
TERMINAL_BW ([…], time 14 day): 329.3 g
TERMINAL_BW ([…], time 28 day): 403.7 g
APTT ([…], time 7 day): 18.2 s
Bas ([…], time 7 day): 0%
Eos ([…], time 7 day): 0.8%
Fbg ([…], time 7 day): 219 mg/dL
Hb ([…], time 7 day): 13.5 g/dL
Ht ([…], time 7 day): 39.7%
Lym ([…], time 7 day): 82.6%
MCH ([…], time 7 day): 20.5 pg
MCHC ([…], time 7 day): 34%
MCV ([…], time 7 day): 60.2 fL
Mono ([…], time 7 day): 2.6%
Neu ([…], time 7 day): 13.4%
PT ([…], time 7 day): 12 s
Plat ([…], time 7 day): 137.3 x10_4/uL
RBC ([…], time 7 day): 661 x10_4/ul
Ret ([…], time 7 day): 4.5%
WBC ([…], time 7 day): 128.8 x10_2/uL
APTT ([…], time 14 day): 19.2 s
Bas ([…], time 14 day): 0%
Eos ([…], time 14 day): 1%
Fbg ([…], time 14 day): 225.8 mg/dL
Hb ([…], time 14 day): 14.3 g/dL
Ht ([…], time 14 day): 41.2%
Lym ([…], time 14 day): 77.8%
MCH ([…], time 14 day): 20.4 pg
MCHC ([…], time 14 day): 34.7%
MCV ([…], time 14 day): 58.8 fL
Mono ([…], time 14 day): 3%
Neu ([…], time 14 day): 17.8%
PT ([…], time 14 day): 11.8 s
Plat ([…], time 14 day): 134 x10_4/uL
RBC ([…], time 14 day): 700.4 x10_4/ul
Ret ([…], time 14 day): 4.5%
WBC ([…], time 14 day): 123.8 x10_2/uL
APTT ([…], time 28 day): 20 s
Bas ([…], time 28 day): 0%
Eos ([…], time 28 day): 1%
Fbg ([…], time 28 day): 225.2 mg/dL
Hb ([…], time 28 day): 15.2 g/dL
Ht ([…], time 28 day): 44%
Lym ([…], time 28 day): 80.8%
MCH ([…], time 28 day): 19.6 pg
MCHC ([…], time 28 day): 34.5%
MCV ([…], time 28 day): 57 fL
Mono ([…], time 28 day): 1.6%
Neu ([…], time 28 day): 15.6%
PT ([…], time 28 day): 12 s
Plat ([…], time 28 day): 108.6 x10_4/uL
RBC ([…], time 28 day): 772.6 x10_4/ul
Ret ([…], time 28 day): 3%
WBC ([…], time 28 day): 116.6 x10_2/uL
KIDNEY_L ([…], time 7 day): 1.1 g
KIDNEY_R ([…], time 7 day): 1.1 g
KIDNEY_TOTAL ([…], time 7 day): 2.2 g
KIDNEY_L ([…], time 14 day): 1.3 g
KIDNEY_R ([…], time 14 day): 1.3 g
KIDNEY_TOTAL ([…], time 14 day): 2.6 g
KIDNEY_L ([…], time 28 day): 1.4 g
KIDNEY_R ([…], time 28 day): 1.4 g
KIDNEY_TOTAL ([…], time 28 day): 2.8 g
LIVER ([…], time 7 day): 12.3 g
LIVER ([…], time 14 day): 15 g
LIVER ([…], time 28 day): 17.1 g
A/G ([…], time 7 day): 1.5
ALP ([…], time 7 day): 970.4 IU/L
ALT ([…], time 7 day): 36 IU/L
AST ([…], time 7 day): 66 IU/L
BUN ([…], time 7 day): 14.4 mg/dL
CRE ([…], time 7 day): 0.4 mg/dL
Ca ([…], time 7 day): 10.8 mg/dL
Cl ([…], time 7 day): 102.2 meq/L
DBIL ([…], time 7 day): 0.06 mg/dL
GLC ([…], time 7 day): 202.6 mg/dL
IP ([…], time 7 day): 6.7 mg/dL
K ([…], time 7 day): 3.8 meq/L
LDH ([…], time 7 day): 205.8 IU/L
Na ([…], time 7 day): 140.8 meq/L
PL ([…], time 7 day): 143.4 mg/dL
RALB ([…], time 7 day): 3.3 g/dL
TBIL ([…], time 7 day): 0.1 mg/dL
TC ([…], time 7 day): 73.8 mg/dL
TG ([…], time 7 day): 75.6 mg/dL
TP ([…], time 7 day): 5.5 g/dL
gamma-GTP ([…], time 7 day): 0.8 IU/L
A/G ([…], time 14 day): 1.4
ALP ([…], time 14 day): 736 IU/L
ALT ([…], time 14 day): 33.8 IU/L
AST ([…], time 14 day): 59.6 IU/L
BUN ([…], time 14 day): 15.8 mg/dL
CRE ([…], time 14 day): 0.4 mg/dL
Ca ([…], time 14 day): 10.7 mg/dL
Cl ([…], time 14 day): 100.8 meq/L
DBIL ([…], time 14 day): 0.076 mg/dL
GLC ([…], time 14 day): 232.4 mg/dL
IP ([…], time 14 day): 6.6 mg/dL
K ([…], time 14 day): 3.5 meq/L
LDH ([…], time 14 day): 211.4 IU/L
Na ([…], time 14 day): 139.8 meq/L
PL ([…], time 14 day): 148.8 mg/dL
RALB ([…], time 14 day): 3.3 g/dL
TBIL ([…], time 14 day): 0.1 mg/dL
TC ([…], time 14 day): 74 mg/dL
TG ([…], time 14 day): 110.4 mg/dL
TP ([…], time 14 day): 5.7 g/dL
gamma-GTP ([…], time 14 day): 1 IU/L
A/G ([…], time 28 day): 1.4
ALP ([…], time 28 day): 568 IU/L
ALT ([…], time 28 day): 33.6 IU/L
AST ([…], time 28 day): 60.2 IU/L
BUN ([…], time 28 day): 15.6 mg/dL
CRE ([…], time 28 day): 0.5 mg/dL
Ca ([…], time 28 day): 10.7 mg/dL
Cl ([…], time 28 day): 102.6 meq/L
DBIL ([…], time 28 day): 0.084 mg/dL
GLC ([…], time 28 day): 221 mg/dL
IP ([…], time 28 day): 6 mg/dL
K ([…], time 28 day): 3.6 meq/L
LDH ([…], time 28 day): 205.2 IU/L
Na ([…], time 28 day): 140.6 meq/L
PL ([…], time 28 day): 142.4 mg/dL
RALB ([…], time 28 day): 3.6 g/dL
TBIL ([…], time 28 day): 0.1 mg/dL
TC ([…], time 28 day): 70.8 mg/dL
TG ([…], time 28 day): 104.6 mg/dL
TP ([…], time 28 day): 6.2 g/dL
gamma-GTP ([…], time 28 day): 1 IU/L
